Tests used:
[1] = Leaching study of treated wood test blocks into water (Example 2); format: physicochemical
Protocol: Wood test blocks prepared in accordance with Example 1, were subjected to a leaching study.
In this leaching study the following procedure was observed. • 1. The wood test block was placed in 500 ml plastic containers with screw caps. • 2. Water was added to the container to over flowing and the container was sealed. • 3. The containers were stored at room temperature. • 4.

[2] = Leaching study of treated wood test blocks into water (Example 4); format: physicochemical
Protocol: In this example test blocks were prepared in accordance with the procedure of Example 1 and subjected a leaching study using the following procedure. • 1. The wood test blocks were placed in 500 ml plastic containers with screw caps. • 2. Water was added to the containers to over flowing and the container was sealed. • 3. The containers were stored at room temperature.
4. After two days the containers were opened and the leachate was analyzed for active quaternary compound (QAC) using a Hach DR/2400 Spectrophotometer.

EN[…] = conditions: ATCC # 13048; lowest concentration which inhibits growth in all replicates
ESCHERICHIA = conditions: ATCC # 11229; lowest concentration which inhibits growth in all replicates
LISTERIA MONOCYTOGENES = conditions: ATCC # 35152; lowest concentration which inhibits growth in all replicates
PSEUDOMONAS AERUGINOSA [3] = conditions: ATCC # 15442; lowest concentration which inhibits growth in all replicates
SERRATIA MARCESANS = conditions: ATCC # 13880; lowest concentration which inhibits growth in all replicates
ST[…] = conditions: ATCC # 6538; lowest concentration which inhibits growth in all replicates
[4] = test system: METHICILLIAN-RESISTANT STAPHYLOCOCCUS AUREUS; conditions: ATCC # 33593; lowest concentration which inhibits growth in all replicates
AS[…] = conditions: ATCC # 16424; lowest concentration which inhibits growth in all replicates
CANDIDA ALBICANS = conditions: ATCC # 10231; lowest concentration which inhibits growth in all replicates
PSEUDOMONAS AERUGINOSA [5] = conditions: ATCC # 15442; ten-minute contact time
SALMONELLA CHOLERAESUIS = conditions: ATCC # 10708; ten-minute contact time
STAPHYLOCOCCUS AUREUS = conditions: ATCC # 6538; ten-minute contact time

**Q.** For “alkyl dimethyl benzyl ammonium chloride [ADBAC]”, which “leaching of quaternary ammonium compound relative to the ADBAS compound” value ([1]; Example 2, ratio of averages) is on record?
**A.** The value was 3.25 times.

**Q.** And the “AVERAGE active quaternary compound in leachate, FINAL DATE May 8, 2004” value ([1]; average of three blocks, water, room temperature, after two days)?
**A.** The value was 45.24 PPM QAC.

**Q.** What about the “leaching relative to the ADBAS compound” value ([2]; Example 4, ratio of averages) of the same substance?
**A.** Its value is 8.1 times.

**Q.** And the “AVERAGE active quaternary compound in leachate, FINAL DATE Sep. 5, 2004” value ([2]; average of three blocks, water, room temperature, start Sep. 1, 2004)?
**A.** The value was 480.0 PPM QAC.

**Q.** Which “Minimum Inhibitory Concentration (MIC) CONCENTRATION” value (from here on “Minimum Inhibitory Concentration”) (EN[…]) does the source give for “alkyl dimethyl benzyl ammonium saccharinate [ADBAS]” here?
**A.** The value was 10 PPM.

**Q.** What about the “Minimum Inhibitory Concentration” value (ESCHERICHIA) of the same substance?
**A.** Its value is 10 PPM.

**Q.** What about the “Minimum Inhibitory Concentration” value (LISTERIA MONOCYTOGENES) of the same substance?
**A.** The value was 1 PPM.

**Q.** What about the “Minimum Inhibitory Concentration” value (PSEUDOMONAS AERUGINOSA [3]) of the same substance?
**A.** The value was 100 PPM.

**Q.** And the “Minimum Inhibitory Concentration” value (SERRATIA MARCESANS)?
**A.** Its value is 10 PPM.

**Q.** And the “Minimum Inhibitory Concentration” value (ST[…])?
**A.** Its value is 1 PPM.

**Q.** And the “Minimum Inhibitory Concentration” value [4]?
**A.** The value was 0.5 PPM.

**Q.** And the “Minimum Inhibitory Concentration” value (AS[…])?
**A.** The value was 10 PPM.

**Q.** And the “Minimum Inhibitory Concentration” value (CANDIDA ALBICANS)?
**A.** Its value is 100 PPM.

**Q.** What about the “AOAC USE-DILUTION VALUES CONCENTRATION” value (PSEUDOMONAS AERUGINOSA [5]) of the same substance?
**A.** The value was 700 PPM.

**Q.** And the “AOAC USE-DILUTION VALUES CONCENTRATION” value (SALMONELLA CHOLERAESUIS)?
**A.** The value was 600 PPM.

**Q.** What about the “AOAC USE-DILUTION VALUES CONCENTRATION” value (STAPHYLOCOCCUS AUREUS) of the same substance?
**A.** The value was 600 PPM.
